Test results from BindingDB's records for doi:10.1124/jpet.302.1.328 (University of North Carolina at Chapel Hill, 2002).
“And” between values parts separate entries of the source, which are not always exact repeats. Equal entries are not always repeated.

target: Histamine H1 receptor (Cavia porcellus, UniProt P31389)
Sequence (P31389 whole entry): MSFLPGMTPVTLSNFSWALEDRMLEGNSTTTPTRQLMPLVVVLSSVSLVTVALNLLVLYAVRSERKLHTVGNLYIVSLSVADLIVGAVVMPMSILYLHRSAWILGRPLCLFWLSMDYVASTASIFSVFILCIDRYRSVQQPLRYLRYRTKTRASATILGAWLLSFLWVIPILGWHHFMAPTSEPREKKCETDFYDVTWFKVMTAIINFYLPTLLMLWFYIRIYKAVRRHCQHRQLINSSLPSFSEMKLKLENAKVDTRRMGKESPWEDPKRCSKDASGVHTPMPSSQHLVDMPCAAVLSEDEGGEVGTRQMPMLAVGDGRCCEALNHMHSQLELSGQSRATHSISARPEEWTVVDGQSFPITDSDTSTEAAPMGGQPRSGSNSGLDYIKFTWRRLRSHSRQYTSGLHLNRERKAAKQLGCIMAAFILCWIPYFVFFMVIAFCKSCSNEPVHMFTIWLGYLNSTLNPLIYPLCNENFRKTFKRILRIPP

Compound | Ki
Nc1nc2c(ncn2[C@@H]2O[C@H](COP(=O)(O)OP(=O)(O)OP(=O)(O)O)C(O)C2O)c(=O)[nH]1 (stereo partly drawn) [+ 1 mM GTP] | > 10000 nM
Cc1ccc(/C(=C\CN2CCCC2)c2ccccn2)cc1 [Actahist] | 0.93 nM and 0.69 nM
O=C(O)C=CC(=O)Oc1ccc(Cl)cc1 [NSC_6445134] | 98 nM and 80.1 nM
CN(C)[C@@H]1Cc2ccccc2[C@H](c2ccccc2)C1 [cis-H2-PAT(+)] | 53.8 nM and 77.7 nM
CN(C)C1Cc2ccccc2C(c2ccccc2)C1 (stereo not drawn) [cis-H2-PAT(+/-)] | 10.9 nM and 7.87 nM and 1.53 nM and 1.37 nM
CN(C)[C@H]1Cc2ccccc2[C@@H](c2ccccc2)C1 [cis-H2-PAT(-)] | 3.92 nM and 4.91 nM
CN(C)[C@H]1Cc2ccccc2[C@H](c2ccccc2)C1 [trans-H2-PAT(+)] | 23 nM and 11.5 nM
CN(C)[C@@H]1Cc2ccccc2[C@@H](c2ccccc2)C1 [trans-PAT] | 1.15 nM and 0.58 nM
